Test results reported in patent US11377447B2, “Targeted therapeutics” (MADRIGAL PHARMACEUTICALS, INC., priority 2017, dated 2022).

Experiment: pH of reconstituted and diluted drug product solution
Assay type: physicochemical
Conditions: lyophilized powder reconstituted with Water for Injection
Method: This solution is filled to deliver 105 mg/vial into a container closure system consisting of a USP Type 1 clear glass vial, stopper, and overseal. The drug product is stored at 2° C. to 8° C., away from light. Prior to administration the lyophilized powder is reconstituted with Water for Injection and then is further diluted in 0.9% Sodium Chloride Injection, USP to the target concentration prior to use. SDC-TRAP-0063 Sodium may have a concentration of between about 25 to about 50 mg/mL, between about 50 to about 100 mg/mL, between about 100 to about 150 mg/mL, or between about 150 to 200 mg/mL. The drug product is intended for intravenous administration by infusion.
The reconstituted solution of SDC-TRAP-0063 Sodium has a pH of 10.0. This solution is diluted to the target dose in 0.9% sodium chloride injection, USP. The pH of the infusion solution depends on the concentration of SDC-TRAP-0063 Sodium in the diluted infusion solution. Across the dose ranges employed in the clinical study protocol, the volume of the diluted infusion solution administered will range from 50 to 500 mL, and the pH will range from 8.1 to 9.6. In order to reduce the potential risks of injection site pain and/or damage to the venous endothelium during IV administration, a central venous access line is used for administration of the diluted SDC-TRAP-0063 Sodium.

CCc1c2c(nc3ccc(OC(=O)N4CCC(CCn5ccc6cc(-n7c(O)nnc7-c7cc(C(C)C)c(O)cc7O)ccc65)CC4)cc13)-c1cc([C@@](O)(CC)C(=O)[O-])c(CO)c(=O)n1C2.[Na+] [SDC-TRAP-0063 Sodium, Sodium (S)-2-(2-((4-(2-(5-(3-(2,4-dihydroxy-5-isopropylphenyl)-5-hydroxy-4H-1,2,4-triazol-4-yl)-1H-indol-1-yl)ethyl)piperidine-1-carbonyl)oxy)-12-ethyl-8-(hydroxymethyl)-9-oxo-9,11-dihydroindolizino[1,2-b]quinolin-7-yl)-2-hydroxybutanoate]
pH of the reconstituted solution: 10.0
